Data taken from PubChem BioAssay (NCI).
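Test compounds were applied to cells in 96-well plates for 48 hours at 5 doses. TGI marks complete inhibition of growth.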

Experiments:
Assay in all cases: inhibition of tumour cell growth, NCI panel, 48 h
786-0 renal = system: 786-0 renal
A498 renal = system: A498 renal
ACHN renal = system: ACHN renal
BT-549 breast = system: BT-549 breast
CAKI-1 renal = system: CAKI-1 renal
CCRF-CEM leukemia = system: CCRF-CEM leukemia
COLO 205 colon = system: COLO 205 colon
DU-145 prostate = system: DU-145 prostate
EKVX NSCLC = system: EKVX NSCLC
HCT-116 colon = system: HCT-116 colon
HCT-15 colon = system: HCT-15 colon
HOP-62 NSCLC = system: HOP-62 NSCLC
HOP-92 NSCLC = system: HOP-92 NSCLC
HS 578T breast = system: HS 578T breast
HT29 colon = system: HT29 colon
IGROV1 ovarian = system: IGROV1 ovarian
K-562 leukemia = system: K-562 leukemia
KM12 colon = system: KM12 colon
LOX IMVI melanoma = system: LOX IMVI melanoma
M14 melanoma = system: M14 melanoma
MALME-3M melanoma = system: MALME-3M melanoma
MCF7 breast = system: MCF7 breast
MDA-MB-231 breast = system: MDA-MB-231 breast
MDA-MB-435 = system: MDA-MB-435
MOLT-4 leukemia = system: MOLT-4 leukemia
NCI-H226 lung = system: NCI-H226 lung
NCI-H23 lung = system: NCI-H23 lung
NCI-H460 lung = system: NCI-H460 lung
NCI-H522 lung = system: NCI-H522 lung
NCI/ADR-RES ovarian = system: NCI/ADR-RES ovarian
OVCAR-3 ovarian = system: OVCAR-3 ovarian
OVCAR-4 ovarian = system: OVCAR-4 ovarian
OVCAR-5 ovarian = system: OVCAR-5 ovarian
PC-3 prostate = system: PC-3 prostate
RPMI-8226 leukemia = system: RPMI-8226 leukemia
RXF 393 renal = system: RXF 393 renal
SF-268 CNS = system: SF-268 CNS
SF-295 CNS = system: SF-295 CNS
SF-539 CNS = system: SF-539 CNS
SK-MEL-2 melanoma = system: SK-MEL-2 melanoma
SK-MEL-28 melanoma = system: SK-MEL-28 melanoma
SK-MEL-5 melanoma = system: SK-MEL-5 melanoma
SK-OV-3 ovarian = system: SK-OV-3 ovarian
SN12C renal = system: SN12C renal
SNB-19 CNS = system: SNB-19 CNS
SNB-75 CNS = system: SNB-75 CNS
SW-620 colon = system: SW-620 colon
T-47D breast = system: T-47D breast
TK-10 renal = system: TK-10 renal
U251 CNS = system: U251 CNS
UACC-62 melanoma = system: UACC-62 melanoma
UO-31 renal = system: UO-31 renal

Measured: TGI

CO[C@@H]1[C@H](O)CC[C@]2(CO2)[C@H]1[C@@]1(C)O[C@@H]1CC=C(C)C
> 200 µM: all assays above
